A short description of data set [1]: Toxicity in sea urchin embryo assessed as inhibition of embryo development before morula stage after 24 hrs by microscopy. To be noted: hemicentrotus pulcherrimus.
Data set [2] concerns Patiria pectinifera. Nature of the data set: Effect on starfish embryo development assessed as occurrence of multinuclei by lactoorcein staining. In kind it is functional.
Data set [3] concerns Hemicentrotus pulcherrimus. The data set can be described thus: Inhibition of first cleavage in sea urchin embryo after 1.5 hrs by microscopy. It counts as functional.
The subject of data set [4] is Patiria pectinifera. Nature of the data set: Effect on starfish embryo development assessed as incomplete cytokinesis by lactoorcein staining. It counts as functional.
Data set [5] concerns Patiria pectinifera. Nature of the data set: Inhibition of actin polymerization in starfish during embryogenesis.
Data set [6] in a line: Toxicity in rabbit RBC assessed as hemolytic index. In kind it is cell-based, Oryctolagus cuniculus. Particulars: erythrocyte.
The test system of data set [7] is Patiria pectinifera. Nature of the data set: Effect on starfish embryo development assessed as abnormal embryo induction at bastula or gastula stage after 24 hrs by lactoorcein staining. It counts as functional.

The source made the active and inactive calls. The calls are words filed in the database; no cut-off is given here.

Regarding `CC(C)C(C)C(=O)C[C@@](C)(O)[C@H]1CC[C@H]2[C@@H]3C[C@H](OC4O[C@H](C)[C@@H](O)[C@H](OC5OC[C@@H](OC6O[C@H](CO)[C@H](O)[C@H](O)[C@H]6OC6O[C@H](C)[C@H](O)[C@H](O)[C@H]6O)[C@H](O)[C@H]5OC5O[C@H](C)[C@@H](O)[C@H](O)[C@H]5O)[C@H]4O)[C@H]4C[C@@H](OS(=O)(=O)[O-])CC[C@]4(C)C3=CC[C@@]21C.[Na+]` (some centres not stated), the LD99 in data set [1] stood at 2 µg/mL. In addition, the outcome with Patiria pectinifera [2], in the data set on Patiria pectinifera [4] and in the data set on Patiria pectinifera [5] was Active. Further, the ED50 in data set [3] is 5 µg/mL; in the data set with Patiria pectinifera [7], 50 µg/mL. Also, the HI in data set [6] worked out at 31400.

With `CC(=O)[C@H]1CC[C@H]2[C@@H]3C[C@H](OC4O[C@H](C)[C@@H](O)[C@H](OC5OC[C@@H](OC6O[C@H](CO)[C@H](O)[C@H](O)[C@H]6OC6O[C@H](C)[C@H](O)[C@H](O)[C@H]6O)[C@H](O)[C@H]5OC5O[C@H](C)[C@@H](O)[C@H](O)[C@H]5O)[C@H]4O)[C@H]4C[C@@H](OS(=O)(=O)[O-])CC[C@]4(C)C3=CC[C@]12C.[Na+]` (some centres not stated), in data set [1], the LD99 was greater than 50 µg/mL. Besides, the results for the ED50 (in data set [3]; in the data set on Patiria pectinifera [7]) were greater than 50 µg/mL and 100 µg/mL, respectively. In addition, in the data set with Patiria pectinifera [5], the result was Active. Also, the HI in data set [6] is less than 2270.

The values are drawn from ChEMBL document CHEMBL1151633, “Biological Activities of Asterosaponins With Special Reference to Structure-Activity Relationships” (J Nat Prod, 1984).
